Reference: article PMC9395488, “First-in-human study of IM156, a novel potent biguanide oxidative phosphorylation (OXPHOS) inhibitor, in patients with advanced solid tumors” (Investigational New Drugs, 2022)

Test system: patients with advanced solid tumors
Assay: First-in-human phase 1 dose-escalation study: safety, DLTs, adverse events
Type: in vivo
Description: This multicenter first-in-human dose-escalation phase 1 study (clinicaltrials.gov identifier: NCT03272256) was designed to determine the MTD or RP2D and to evaluate the safety and tolerability of IM156. Secondary endpoints included PK characteristics, efficacy assessment (objective response rate [ORR], disease control rate [DCR], duration of response [DoR] and progression-free survival [PFS]). Furthermore, exploratory objectives included identification and profiling of IM156 metabolites, evaluations of exploratory PD markers of IM156, and evaluations of any potential relationship between putative biomarkers and safety/efficacy parameters of IM156. The study was conducted in accordance with Good Clinical Practice, the International Council for Harmonisation, and guidelines governing clinical study conduct and the ethical principles originating from the Declaration of Helsinki. The study was approved by each Institutional Review Board and patients provided written informed consent. Patients were enrolled at three sites in South Korea.
The initial dose and schedule of IM156 was chosen based on animal toxicology studies. […] IM156 was administered in the fasted state, with no food for at least 2 h before and 1 h after dosing.
Three DLT-evaluable patients were enrolled at each dose level. If there were no DLTs or other prohibitive adverse events (AEs), the Safety Committee was allowed to recommend escalation to the next highest dose level. If 1 DLT occurred in the first 3 DLT-evaluable patients, enrollment in that cohort was expanded to an additional 3 DLT-evaluable patients; if ≥ 2 DLTs were reported in a cohort, that dose was considered above the MTD.
Safety was assessed through vital signs, weight, laboratory assessments, physical examinations, electrocardiogram, and reporting of AEs as graded by the National Cancer Institute’s Common Terminology Criteria for Adverse Events v4.03 (NCI-CTCAE).
DLTs were defined as the following AEs if they were attributed as related to IM156: asymptomatic grade 4 neutropenia lasting for ≥ 5 days; febrile neutropenia, regardless of grade; grade 4 thrombocytopenia or grade 3 thrombocytopenia with bleeding; any grade ≥ 3 non-hematologic AE (except grade 3 hypertension and grade 3 nausea, vomiting or diarrhea for which proper measures for prevention and treatment were not implemented, and alopecia); blood lactate levels > 5 mmol; grade ≥ 2 AE prohibiting dosing of IM156 for ≥ 21 continuous days except for alterations in serum calcium or phosphorus levels. The safety analysis includes all patients who received at least one dose of study drug.
The safety population was defined as all patients who received at least one dose of IM156. The PK population was not defined in the protocol but included all patients with sufficient PK data to perform adequate PK modeling. The efficacy population included all patients who underwent at least one tumor imaging assessment while receiving IM156. Safety was assessed using descriptive statistics (e.g., DLTs, AEs, laboratory tests, physical examination, 12-lead ECG). The incidence and number of events were reported for the DLTs observed in Cycle 1 per dose group. […] Adverse events and TRAEs were standardized with the System Organ Class and the Preferred Term using the Medical Dictionary for Regulatory Activities v23.0. In addition, TEAEs, serious adverse events (SAEs), TEAE severity, and TEAEs leading to withdrawal were presented by dose group. Efficacy data were to be presented by Waterfall and Swim Lane plots. Time to event endpoints (e.g., DoR, PFS) were determined using Kaplan–Meier estimations with the median value for each endpoint summarized.

[1] = DL4 800 mg orally every other day (n=3)
[2] = DL5 1200 mg orally every other day (n=3)

In the case of NC(=Nc1ccc(OC(F)(F)F)cc1)N=C(N)N1CCCC1 [IM156], the “TEAE Anaemia grade 4” value [1] is reported as 0, the “TEAE Appendicitis perforated grade 1” value [1] is reported as 0 and the “TEAE Appendicitis perforated grade 2” value [1] is reported as 0. For the same molecule, the “TEAE Appendicitis perforated grade 3” value [1] was 0, the “TEAE Appendicitis perforated grade 4” value [1] was 0 and the “TEAE Back pain grade 1” value [1] was 0. For the same molecule, the “TEAE Back pain grade 2” value [1] was 2, the “TEAE Back pain grade 3” value [1] was 0 and the “TEAE Back pain grade 4” value [1] was 0. For the same molecule, the “TEAE Cystitis grade 1” value [1] was 0, the “TEAE Cystitis grade 2” value [1] was 1 and the “TEAE Cystitis grade 3” value [1] was 0. For the same molecule, the “TEAE Cystitis grade 4” value [1] was 0, the “TEAE Dry skin grade 1” value [1] was 0 and the “TEAE Dry skin grade 2” value [1] was 0. For the same molecule, the “TEAE Dry skin grade 3” value [1] was 0, the “TEAE Dry skin grade 4” value [1] was 0 and the “TEAE Flank pain grade 1” value [1] was 0. For the same molecule, the “TEAE Flank pain grade 2” value [1] was 0, the “TEAE Flank pain grade 3” value [1] was 0 and the “TEAE Flank pain grade 4” value [1] was 0. For the same molecule, the “TEAE Hypertension grade 1” value [1] was 0, the “TEAE Hypertension grade 2” value [1] was 0 and the “TEAE Hypertension grade 3” value [1] was 0. For the same molecule, the “TEAE Hypertension grade 4” value [1] was 0, the “TEAE Hypotension grade 1” value [1] was 0 and the “TEAE Hypotension grade 2” value [1] was 0. For the same molecule, the “TEAE Hypotension grade 3” value [1] was 0, the “TEAE Hypotension grade 4” value [1] was 0 and the “TEAE Insomnia grade 1” value [1] was 0. For the same molecule, the “TEAE Insomnia grade 2” value [1] was 0, the “TEAE Insomnia grade 3” value [1] was 0 and the “TEAE Insomnia grade 4” value [1] was 0. For the same molecule, the “TEAE Pain in extremity grade 1” value [1] was 0, the “TEAE Pain in extremity grade 2” value [1] was 1 and the “TEAE Pain in extremity grade 3” value [1] was 0. For the same molecule, the “TEAE Pain in extremity grade 4” value [1] was 0, the “TEAE Pruritus grade 1” value [1] was 0 and the “TEAE Pruritus grade 2” value [1] was 0. The “TEAE Pruritus grade 3” value [1] was 0, the “TEAE Pruritus grade 4” value [1] was 0 and the “TEAE Psychiatric disorders grade 1” value [1] was 0. For the same molecule, the “TEAE Psychiatric disorders grade 2” value [1] was 0, the “TEAE Psychiatric disorders grade 3” value [1] was 0 and the “TEAE Psychiatric disorders grade 4” value [1] was 0. The “TEAE Purpura grade 1” value [1] was 0, the “TEAE Purpura grade 2” value [1] was 0 and the “TEAE Purpura grade 3” value [1] was 0. For the same molecule, the “TEAE Purpura grade 4” value [1] was 0, the “TEAE Urinary retention grade 1” value [1] was 0 and the “TEAE Urinary retention grade 2” value [1] was 1. For the same molecule, the “TEAE Urinary retention grade 3” value [1] was 0, the “TEAE Urinary retention grade 4” value [1] was 0 and the “TEAE Urinary tract disorder grade 1” value [1] was 0. For the same molecule, the “TEAE Urinary tract disorder grade 2” value [1] was 0, the “TEAE Urinary tract disorder grade 3” value [1] was 0 and the “TEAE Urinary tract disorder grade 4” value [1] was 0. For the same molecule, the “TEAE Abdominal pain, grade 1” value (DL5 1200 mg QOD (n=3)) was 1, the “TEAE Alanine aminotransferase increased, grade 3” value (DL5 1200 mg QOD (n=3)) was 1 and the “TEAE Aspartate aminotransferase increased, grade 2” value (DL5 1200 mg QOD (n=3)) was 1. The “TEAE Aspartate aminotransferase increased, grade 3” value (DL5 1200 mg QOD (n=3)) was 1, the “TEAE Asthenia, grade 1” value (DL5 1200 mg QOD (n=3)) was 1 and the “TEAE Blood alkaline phosphatase increased, grade 2” value (DL5 1200 mg QOD (n=3)) was 1. The “TEAE Blood alkaline phosphatase increased, grade 3” value (DL5 1200 mg QOD (n=3)) was 1, the “TEAE Constipation, grade 1” value (DL5 1200 mg QOD (n=3)) was 1 and the “TEAE Decreased appetite, grade 1” value (DL5 1200 mg QOD (n=3)) was 1. The “TEAE Diarrhoea, grade 1” value (DL5 1200 mg QOD (n=3)) was 1, the “TEAE Diarrhoea, grade 2” value (DL5 1200 mg QOD (n=3)) was 1 and the “TEAE Fatigue, grade 2” value (DL5 1200 mg QOD (n=3)) was 1. The “TEAE Gamma-glutamyltransferase increased, grade 2” value (DL5 1200 mg QOD (n=3)) was 1, the “TEAE Gamma-glutamyltransferase increased, grade 3” value (DL5 1200 mg QOD (n=3)) was 1 and the “TEAE Headache, grade 1” value (DL5 1200 mg QOD (n=3)) was 1. For the same molecule, the “TEAE Hypoalbuminaemia, grade 2” value (DL5 1200 mg QOD (n=3)) was 1, the “TEAE Hypocalcemia, grade 2” value (DL5 1200 mg QOD (n=3)) was 1 and the “TEAE Nausea, grade 1” value (DL5 1200 mg QOD (n=3)) was 1. For the same molecule, the “TEAE Nausea, grade 3” value (DL5 1200 mg QOD (n=3)) was 1, the “TEAE Oropharyngeal pain, grade 1” value (DL5 1200 mg QOD (n=3)) was 1 and the “TEAE Pyrexia, grade 1” value (DL5 1200 mg QOD (n=3)) was 1. The “TEAE Vomiting, grade 1” value (DL5 1200 mg QOD (n=3)) was 1, the “TEAE Vomiting, grade 2” value (DL5 1200 mg QOD (n=3)) was 1 and the “TRAE Abdominal Pain, > G3 (patients)” value (DL5 1,200 mg QOD oral, N = 3) was 0. The “TRAE Abdominal Pain, All grades (patients)” value (DL5 1,200 mg QOD oral, N = 3) was 0, the “TRAE Blood Lactic Acid increased, > G3 (patients)” value (DL5 1,200 mg QOD oral, N = 3) was 0 and the “TRAE Blood Lactic Acid increased, All grades (patients)” value (DL5 1,200 mg QOD oral, N = 3) was 0. The “TRAE Constipation, > G3 (patients)” value (DL5 1,200 mg QOD oral, N = 3) was 0, the “TRAE Constipation, All grades (patients)” value (DL5 1,200 mg QOD oral, N = 3) was 0 and the “TRAE Decreased appetite, > G3 (patients)” value (DL5 1,200 mg QOD oral, N = 3) was 0. For the same molecule, the “TRAE Decreased appetite, All grades (patients)” value (DL5 1,200 mg QOD oral, N = 3) was 1, the “TRAE Diarrhoea, > G3 (patients)” value (DL5 1,200 mg QOD oral, N = 3) was 0 and the “TRAE Diarrhoea, All grades (patients)” value (DL5 1,200 mg QOD oral, N = 3) was 2. The “TRAE Fatigue, > G3 (patients)” value (DL5 1,200 mg QOD oral, N = 3) was 0, the “TRAE Fatigue, All grades (patients)” value (DL5 1,200 mg QOD oral, N = 3) was 0 and the “TRAE Insomnia, > G3 (patients)” value (DL5 1,200 mg QOD oral, N = 3) was 0. For the same molecule, the “TRAE Insomnia, All grades (patients)” value (DL5 1,200 mg QOD oral, N = 3) was 0, the “TRAE Nausea, > G3 (patients)” value (DL5 1,200 mg QOD oral, N = 3) was 1 and the “TRAE Nausea, All grades (patients)” value (DL5 1,200 mg QOD oral, N = 3) was 2. For the same molecule, the “TRAE Vomiting, > G3 (patients)” value (DL5 1,200 mg QOD oral, N = 3) was 0, the “TRAE Vomiting, All grades (patients)” value (DL5 1,200 mg QOD oral, N = 3) was 2 and the “TEAE Adrenal insufficiency grade 1” value [2] was 0. The “TEAE Adrenal insufficiency grade 2” value [2] was 1, the “TEAE Adrenal insufficiency grade 3” value [2] was 0 and the “TEAE Adrenal insufficiency grade 4” value [2] was 0. For the same molecule, the “TEAE Anaemia grade 1” value [2] was 0, the “TEAE Anaemia grade 2” value [2] was 0 and the “TEAE Anaemia grade 3” value [2] was 1. For the same molecule, the “TEAE Anaemia grade 4” value [2] was 0, the “TEAE Appendicitis perforated grade 1” value [2] was 0 and the “TEAE Appendicitis perforated grade 2” value [2] was 0. The “TEAE Appendicitis perforated grade 3” value [2] was 0, the “TEAE Appendicitis perforated grade 4” value [2] was 0 and the “TEAE Back pain grade 1” value [2] was 0. For the same molecule, the “TEAE Back pain grade 2” value [2] was 0, the “TEAE Back pain grade 3” value [2] was 0 and the “TEAE Back pain grade 4” value [2] was 0. For the same molecule, the “TEAE Cystitis grade 1” value [2] was 0, the “TEAE Cystitis grade 2” value [2] was 0 and the “TEAE Cystitis grade 3” value [2] was 0. For the same molecule, the “TEAE Cystitis grade 4” value [2] was 0.
